Measurements: patent publication US7160919B2, “C7 lactyloxy-substituted taxanes” (Florida State University Research Foundation, Inc., priority 2004, dated 2007)

Assays:
VM46 colon cell line = experiment: In vitro cytotoxicity, cell colony formation assay (VM46); type: cell-based; details: 72 h drug incubation, colonies counted after 7 days, concentration producing 50% inhibition of colony formation
Protocol: (§1) Four hundred cells (HCT116) were plated in 60 mm Petri dishes containing 2.7 mL of medium (modified McCoy's 5a medium containing 10% fetal bovine serum and 100 units/mL penicillin and 100 µg/mL streptomycin). The cells were incubated in a CO2 incubator at 37° C. for 5 h for attachment to the bottom of Petri dishes. The compound identified in Example 1 was made up fresh in medium at ten times the final concentration, and then 0.3 mL of this stock solution was added to the 2.7 mL of medium in the dish. The cells were then incubated with drugs for 72 h at 37° C. At the end of incubation the drug-containing media were decanted, the dishes were rinsed with 4 mL of Hank's Balance Salt Solution (HBSS), 5 mL of fresh medium was added, and the dishes were returned to the incubator for colony formation. The cell colonies were counted using a colony counter after incubation for 7 days. Cell survival was calculated and the values of IC50 (the drug concentration producing 50% inhibition of colony formation) were determined for each tested compound.
An identical assessment was carried out using the VM46 colon cell line.
(§2) The assays described above were repeated using the compound identified in Example 2. The results of these assays are tabulated below in comparison with data for paclitaxel and docetaxel.

HCT116 cells = experiment: In vitro cytotoxicity, cell colony formation assay (HCT116); type: cell-based; details: colonies counted after 7 days, concentration producing 50% inhibition of colony formation
Protocol: as §1, §2

[1] = Homo sapiens, HCT-116, 72 h drug incubation

| Structure (SMILES) | IC50 (VM46 colon cell line) | IC50 (HCT116 cells; 72 h drug incubation) | IC50 (HCT116 cells; [1]) | melting point |
| --- | --- | --- | --- | --- |
| CC(=O)O[C@@]12CO[C@@H]1C[C@H](O)[C@@]1(C)C(=O)[C@H](O)C3=C(C)[C@@H](OC(=O)[C@H](O)[C@@H](NC(=O)OC(C)(C)C)c4ccccc4)C[C@@](O)([C@@H](OC(=O)c4ccccc4)[C@H]21)C3(C)C [Docetaxel, docetaxel, reference compound] | 6.7 nM | 0.6 nM | – | – |
| CC(=O)O[C@@]12CO[C@@H]1C[C@H](OC(=O)[C@@H](C)O)[C@@]1(C)C(=O)[C@H](O)C3=C(C)[C@@H](OC(=O)[C@H](O)[C@@H](NC(=O)OC(C)(C)C)c4ccco4)C[C@@](O)([C@@H](OC(=O)c4ccccc4)C12)C3(C)C (stereo partly drawn) [7-((R)-(+)-2-hydroxyloxypropionyl)-2-furyl-Docetaxel] | 4.22 nM | – | 0.05 nM | – |
| CC(=O)O[C@H]1C(=O)[C@@]2(C)[C@H]([C@H](OC(=O)c3ccccc3)[C@]3(O)C[C@H](OC(=O)[C@H](O)[C@@H](NC(=O)c4ccccc4)c4ccccc4)C(C)=C1C3(C)C)[C@]1(OC(C)=O)CO[C@@H]1C[C@@H]2O [Paclitaxel, paclitaxel, reference compound] | 20 nM | – | 2.1 nM | – |
| CC(=O)O[C@@]12CO[C@@H]1C[C@H](OC(=O)[C@H](C)O)[C@@]1(C)C(=O)[C@H](O)C3=C(C)[C@@H](OC(=O)[C@H](O)[C@@H](NC(=O)OC(C)(C)C)c4ccco4)C[C@@](O)([C@@H](OC(=O)c4ccccc4)C12)C3(C)C (stereo partly drawn) [7-((S)-(−)-2-hydroxyloxypropionyl)-2-furyl-Docetaxel] | 2.5 nM | – | 0.17 nM | 174 to 176 °C |
